This is an account of results in patent publication US6500853B1, “Inhibitors of phospholipase enzymes” (Genetics Institute, LLC, priority 1998, dated 2002).

For the assay, the target named is T1, cPLA2 (Homo sapiens, UniProt P47712).
T1 sequence (P47712 1-749): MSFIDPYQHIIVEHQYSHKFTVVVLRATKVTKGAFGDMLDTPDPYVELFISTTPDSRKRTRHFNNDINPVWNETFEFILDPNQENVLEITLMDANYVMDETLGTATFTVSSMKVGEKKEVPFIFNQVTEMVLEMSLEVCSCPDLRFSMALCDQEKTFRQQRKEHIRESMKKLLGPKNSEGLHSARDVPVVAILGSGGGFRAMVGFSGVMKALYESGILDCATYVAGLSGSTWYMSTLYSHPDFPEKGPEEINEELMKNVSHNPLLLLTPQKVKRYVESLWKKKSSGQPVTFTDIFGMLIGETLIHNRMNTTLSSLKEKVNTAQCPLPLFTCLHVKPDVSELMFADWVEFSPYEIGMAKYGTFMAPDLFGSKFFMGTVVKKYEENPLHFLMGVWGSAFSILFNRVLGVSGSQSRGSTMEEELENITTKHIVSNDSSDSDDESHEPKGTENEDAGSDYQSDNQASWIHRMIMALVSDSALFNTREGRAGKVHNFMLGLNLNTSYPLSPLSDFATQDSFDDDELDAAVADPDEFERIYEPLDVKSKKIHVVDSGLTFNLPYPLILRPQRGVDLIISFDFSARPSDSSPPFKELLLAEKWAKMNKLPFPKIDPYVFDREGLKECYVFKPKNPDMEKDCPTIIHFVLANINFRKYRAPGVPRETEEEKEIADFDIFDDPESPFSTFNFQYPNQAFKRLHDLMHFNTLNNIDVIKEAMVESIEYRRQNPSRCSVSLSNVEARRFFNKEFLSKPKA
Description: Coumarin Assay (cPLA2 inhibition). The format is biochemical. The following applies: for inhibition at 6.25 µM: CONCENTRATION 6.25 micromolar; for inhibition at 20 µM: CONCENTRATION 20 micromolar. As to the method:
Table I reports data for the compounds described in the examples above in cPLA2 inhibition assays (described below). In the data columns of Tables I and II, assay results are reported as a percent inhibition at the concentration specified.
7-hydroxycoumarinyl 6-heptenoate was used as a monomeric substrate for cPLA2 as reported previously (Huang, Z. et al., 1994, Nalytical Biochemistry 222, 110-115). Inhibitors were mixed with 200 μL assay buffer (80 mM Heped, pH 7.5, 1 mM EDTA) containing 60 μM 7-hydroxycoumarinyl 6-heptenoate. The reaction was initiated by adding 4 μg cPLA2 in 50 μL assay buffer. Hydrolysis of the 7-hydroxycounarimyl 6-heptenoate ester was monitored in a fluorometer by exciting at 360 nm and monitoring emission at 460 nm. Enzyme activity is proportional to the increase in emission at 460 nm per minute. In the presence of a cPLA2 inhibitor, the rate of increase is less. The percent inhibition for corresponding concentrations of compounds herein in this Coumarin assay are provided below in Table I.

For orientation: inhibition means how much of the control response was suppressed. For `COc1cc(C(=O)NS(=O)(=O)c2ccccc2C)ccc1Cc1cn(C(c2ccccc2)c2ccccc2)c2ccc(NC(=O)OC3CCCC3)cc12` [Example 19, Cyclopentyl N-{1-benzhydryl-3-[2-methoxy-4-({[(2-methylphenyl)sulfonyl]amino}carbonyl)benzyl]-1H-indol-5-yl}carbamate], the inhibition at 2.2 µM (CONCENTRATION 2.2 micromolar, read-out: PERCENT INHIBITION @) came out at 50%. In addition, for the setting “CONCENTRATION 4.2 micromolar, read-out: PERCENT INHIBITION @”, the inhibition at 4.2 µM was found to be 50%. Moreover, where the note is “CONCENTRATION 5.8 micromolar, read-out: PERCENT INHIBITION @”, the inhibition at 5.8 µM was 50%. Where the note is “read-out: PERCENT INHIBITION @”, the inhibition at 6.25 µM stood at 52%. The inhibition at 7.8 µM (CONCENTRATION 7.8 micromolar, read-out: PERCENT INHIBITION @) is 50%. Moreover, under “CONCENTRATION 9 micromolar, read-out: PERCENT INHIBITION @”, the inhibition at 9 µM was 50%. The inhibition at 11 µM (CONCENTRATION 11 micromolar, read-out: PERCENT INHIBITION @) worked out at 50%. The inhibition at 12 µM (CONCENTRATION 12 micromolar, read-out: PERCENT INHIBITION @) turned out to be 50%.

For `O=C(O)c1ccc(OCCc2c(CS(=O)(=O)c3ccccc3)n(C(c3ccccc3)c3ccccc3)c3ccc(Cl)cc23)cc1` [Example 153, 4-(2-{1-benzhydryl-5-chloro-2-[(phenylsulfonyl)methyl]-1H-indol-3-yl}ethoxy)benzoic acid], the inhibition at 3 µM (Conc 3 uM, read-out: % Inhibition) was found to be 50%.

For `Cc1c(Cc2ccc(C(=O)O)cc2)c2cc(Cl)ccc2n1C(c1ccccc1)c1ccccc1` [Example 88, 4-[(1-benzhydryl-5-chloro-2-methyl-1H-indol-3-yl)methyl]benzoic acid], the “PERCENT INHIBITION @” value (CONCENTRATION 1.25 micromolar) turned out to be 53%. In addition, the inhibition at 1.25 µM (CONCENTRATION 1.25 micromolar, read-out: PERCENT INHIBITION @) worked out at 50%. For the setting “CONCENTRATION 1.32 micromolar, read-out: PERCENT INHIBITION @”, the inhibition at 1.32 µM is 50%.

`COc1cc(C(=O)O)ccc1Cc1cn(C(c2ccccc2)c2ccccc2N2CCOCC2)c2cc(Cl)ccc12` (stereo not shown) [Example 135, ′4-({6-chloro-1-[(2-morpholinophenyl)(phenyl)methyl]-1H-indol-3-yl}methyl)-3-methoxybenzoic acid]: the “PERCENT INHIBITION @” value (CONCENTRATION 0.7 micromolar) came to 50%.

On to `Cc1c(CCOc2ccc(C(=O)O)cc2)c2cc(Cl)ccc2n1C(c1ccccc1)c1ccccc1` [Example 149, 4-[2-(1-benzhydryl-5-chloro-2-methyl-1H-indol-3-yl)ethoxy]benzoic acid], for which the inhibition at 2.5 µM (Conc 2.5 uM, read-out: % Inhibition) is 50%.

For `COc1ccc(C(c2ccccc2)n2cc(Cc3ccc(C(=O)O)cc3OC)c3ccc(Cl)cc32)cc1` (stereo not shown) [Example 133, ′4-({6-chloro-1-[(4-methoxyphenyl)(phenyl)methyl]-1H-indol-3-yl}methyl)-3-methoxybenzoic acid], the “PERCENT INHIBITION @” value (CONCENTRATION 0.3 micromolar) came out at 50%.

On to `COc1cc(C(=O)NS(=O)(=O)c2ccccc2C)ccc1Cc1cn(Cc2ccc3ccccc3c2)c2ccc(NC(=O)OC3CCCC3)cc12` [Example 23, Cyclopentyl N-[3-[2-methoxy-4-({[(2-methylphenyl)sulfonyl]amino}carbonyl)benzyl]-1-(2-naphthylmethyl)-1H-indol-5-yl]carbamate], for which, for the setting “CONCENTRATION 10 micromolar, read-out: PERCENT INHIBITION @”, the inhibition at 10 µM was 50%. Moreover, for the setting “read-out: PERCENT INHIBITION @”, the inhibition at 20 µM is 58%.

Consider `COc1cc(OCC(=O)O)ccc1Cc1cn(C(c2ccccc2)c2ccccc2)c2cc(Cl)ccc12` [Example 118, 2-{4-[(1-benzhydryl-6-chloro-1H-indol-3-yl)methyl]-3-methoxyphenoxy}acetic acid], for which the inhibition at 0.6 µM (CONCENTRATION 0.6 micromolar, read-out: PERCENT INHIBITION @) came to 50%.

On to `Cc1c(C(=O)Nc2cc(C(=O)O)cc(C(=O)O)c2)c2cc(OCc3ccccc3)ccc2n1Cc1ccc(C(F)(F)F)cc1C(F)(F)F` [Example 108, 5-[({5-(benzyloxy)-1-[2,4-bis(trifluoromethyl)benzyl]-2-methyl-1H-indol-3-yl}carbonyl)amino]isophthalic acid], for which, under “read-out: PERCENT INHIBITION @”, the inhibition at 6.25 µM was found to be 67% and the inhibition at 20 µM came out at 15%. In addition, the inhibition at 48 µM (CONCENTRATION 48 micromolar, read-out: PERCENT INHIBITION @) came out at 50%. Further, the inhibition at 50 µM (CONCENTRATION 50 micromolar, read-out: PERCENT INHIBITION @) stood at 46%.

`O=C(Nc1cccc(C(=O)O)c1)C(=O)c1cn(CCCOc2ccc(Cc3ccccc3)cc2)c2ccccc12` [Example 62, 3-[(2-{1-[3-(4-benzylphenoxy)propyl]-1H-indol-3-yl}-2-oxoacetyl)amino]benzoic acid]: the inhibition at 7 µM (CONCENTRATION 7 micromolar, read-out: PERCENT INHIBITION @) was determined as 50%. In addition, the inhibition at 12.5 µM (CONCENTRATION 12.5 micromolar, read-out: PERCENT INHIBITION @) was 86%.

As to `O=C(O)CC(=O)Nc1ccc(Cc2cn(C(c3ccccc3)c3ccccc3)c3cc(Cl)ccc23)cc1` [Example 124, sodium 3-{4-[(1-benzhydryl-6-chloro-1H-indol-3-yl)methyl]anilino}-3-oxopropanoic acid], the inhibition at 1.3 µM (CONCENTRATION 1.3 micromolar, read-out: PERCENT INHIBITION @) came to 50%.
